This note sets out measurements from US6663862B1, “Reagents for detection and purification of antibody fragments” (Duke University, priority 1999, dated 2003).

This assay concerns Fc fragment of human IgG. Nature of the assay: Binding of B1 mutants to human IgG Fc fragment (acrylodan fluorescence titration; competition assay for weak binders). Conditions: for DDG = −RTIn (Kd wild type/Kd mutant): T = 298K, relative to Q32C wild-type construct; for Kd: hFc, Q32C background, 20 mM KPO4 (pH 6.0), 25° C., direct titration, or competition with labeled wild-type B1-hFc complex for weak binders; for fold increase in Kd: hFc binding, relative to wild-type (Q32C) B1. The source says: Fluorophore coupling and iodoacetamide blocking. All of the above mutations were constructed into the Q32C background to allow site-specific covalent coupling with acrylodan for fluorescent binding assays as described by Sloan, D. J. and Hellinca, H. W. (1998) Prot. Eng. 11:819-823. In competitive binding experiments between fluorescently labeled wild-type B1 and unlabeled mutants, the free thiol in the mutant protein was blocked by reaction with iodoacetamide.
Binding of B1 mutants to human IgG Fc fragment. The binding constants for each of the alanine mutants were measured as an increase in fluorescence by direct titration of Fc fragment of human IgG (ICN Biomedicals, Costa Mesa, Calif.) into a solution containing 250nM acrylodan-conjugated B1 domain mutant in 20 mM KPO4 (pH 6.0) at 25° C. (excitation 392 nm; emission 500 nm; slit widths of 4 and 16 nm respectively). After each addition of protein, the solution was allowed to equilibrate for 30 seconds before the final fluorescence value was recorded.
Each titration comprised 20 points and was performed in triplicate. The data were fit to a binding isotherm that described a single binding site and takes into account all of the species present (Segel, I. H. (1975) Enzyme Kinetics, John Wiley & Sons, New York, N.Y.): [formula]
where F is the measured fluorescence with FO and Fmax representing the initial and final values, respectively. [B1]t and [hFc]t are the concentrations of B1 and hFc respectively, and the Kd is the disassociation constant. This equation is referred to herein as “Equation 1”.
The binding constants of weak binders (greater than 50-fold increases in Kd) were measured in a competition assay with a pre-formed complex (250 nM) of wild type Q32C construct conjugated to acrylodan and hFc. Binding constants were determined by measuring the decrease in fluorescence of the complex by the addition of iodoacetamide blocked mutant B1 domains. From these competition binding curves the Kd for each of the mutant B1 domains was calculated from the binding isotherm (Fierke, C. A. et al. (1991) Biochemistry 30:11054-11063): [formula]
where F is the measured fluorescence with Fo and Ff representing the initial and final values respectively. [B1wt] and [B1mut] are the concentrations of B1 wild type and mutant respectively, and the Kd is the disassociation constant of the mutant or wild type. This Equation is referred to herein as “Equation 2”.
Binding studies. The interaction of the mutant B1 domain with the hFc was measured using a fluorescence method described by Sloan, D. J. and Hellinga, H. W. (1998) Prot. Eng. 11:819-823, which relies on the attachment of an environmentally sensitive fluorophore placed at the rim of the binding site in a location such that its fluorescence changes upon formation of the complex by virtue of alterations in conformational degrees of freedom and solvent accessibility, without adversely affecting the binding constant. Binding constants for hFc were determined in a direct titration experiment in which purified hFc was added to a solution of a Q32C B1 mutant to which the fluorophore acrylodan was covalently coupled at position 32C (FIG. 2A). The binding constants for all the B1 mutants were determined in the Q32C background (Table 4).
This approach was used to avoid having to use large quantities of pure hFc.

Residue numbers refer to the chain shown, from its start. Marks after values point to notes of the source that are not given here. Where only a bound is given, the exact number is not on record here.

For orientation: Kd means the equilibrium constant for the complex coming apart. A high value points to a looser complex. Consider “10: B1 domain of protein G, T44/Y45A mutant in Q32C background [Example 10]”, for which the “DDG = −RTIn (Kd wild type/Kd mutant)” value is 2.0 kcal/mol and the dissociation constant Kd is 6.5 µM.

As for “5: B1 domain of protein G, K31A mutant in Q32C background [Example 5]”, the “DDG = −RTIn (Kd wild type/Kd mutant)” value turned out to be 3.5 kcal/mol; the “fold increase in Kd” value is given as 350 fold; the affinity, expressed as Kd, was 85 µM.

Regarding “7: B1 domain of protein G, D40A mutant in Q32C background [Example 7]”, the “DDG = −RTIn (Kd wild type/Kd mutant)” value came out at 0.3 kcal/mol and the dissociation constant Kd came out at 0.38 µM.

Regarding “9: B1 domain of protein G, W43A mutant in Q32C background [Example 9]”, the “DDG = −RTIn (Kd wild type/Kd mutant)” value came out at 3.8 kcal/mol; the “fold increase in Kd” value was found to be 580 fold; the affinity, expressed as Kd, was 140 µM.

Take “4: B1 domain of protein G, K28A mutant in Q32C background [Example 4]”: the “DDG = −RTIn (Kd wild type/Kd mutant)” value was 1.3 kcal/mol and the Kd is 2 µM.

As for “1: B1 domain of protein G with Q32C mutation and His tag; the wild-type construct relative to which all measurements are made [Example 1, reference compound]”, the “DDG = −RTIn (Kd wild type/Kd mutant)” value was 0 kcal/mol and the Kd amounted to 0.24 µM.

Take “3: B1 domain of protein G, E27A mutant in Q32C background [Example 3]”: the “DDG = −RTIn (Kd wild type/Kd mutant)” value is >4.9^f kcal/mole, the “fold increase in Kd” value is greater than 4000 fold and the Kd is greater than 1000 µM.

Turning to “6: B1 domain of protein G, N35A mutant in Q32C background [Example 6]”, the “DDG = −RTIn (Kd wild type/Kd mutant)” value is 2.4 kcal/mol, the “fold increase in Kd” value is given as 50 fold and binding was put at a Kd of 13 µM.

Consider “2: B1 domain of protein G, T25A mutant in Q32C background [Example 2]”, for which the “DDG = −RTIn (Kd wild type/Kd mutant)” value turned out to be 0.24 kcal/mol and the equilibrium dissociation constant (Kd) was determined as 0.36 µM.

As for “8: B1 domain of protein G, E42A mutant in Q32C background [Example 8]”, the “DDG = −RTIn (Kd wild type/Kd mutant)” value worked out at 0.4 kcal/mol and the Kd is 0.46 µM.
